Legend:
SW620 Yap KO cells = experiment: Viability assay in SW620 Yap KO (Yap independent) cells, CyQUANT; assay type: cell-based; details: Homo sapiens, SW-620, SW620 YAP/TAZ knock-out (YAP independent) cells, 96 hour incubation
Description: The ability of YAP-TEAD inhibitors to inhibit tumor cell growth was evaluated using two different cell lines: NCI-H226, which is a YAP dependent cell line, and SW620 cells, where YAP and TAZ were knocked out using CRISPR to generate a YAP independent cell line.
For the assay, cells were treated in duplicates with the test compounds in a 10-point dose, 1:3 dilution steps, with the top concentration starting at 30 μM (final concentration in assay). After a 96 hour incubation at 37° C., 95% rH, and 5% CO2, a cell-permeant DNA-binding dye that stains only healthy cells (CyQUANT®, Promega) was added to the cells, allowing the quantification of cell viability.
Cell Media: The NCI-H226 cells were cultured in the following media: RPMI 1640, +10% FBS, +1× GlutaMAX, +10 mM HEPES, +0.5% Pen/Strep. The SW620-KO cells were cultured in the following media: DMEM/F-12, +10% FBS, +1× GlutaMAX, +10 mM HEPES, +0.5% Pen/Strep.
Reagents: The reagents used are listed below:
Cell culture: The cells were examined using an inverted microscope to check for health, cell density, etc. To dissociate adherent cells, the monolayer of cells was washed once with pre-warmed PBS. After removing the PBS, 3 ml pre-warmed Accutase was added to a F75 flask, dispersed evenly and the flask was allowed to sit in incubator for ˜4-5 minutes.
When a single cell suspension was obtained, 7 ml of prewarmed growth media was added and resuspended with the cells. The cell suspension was transferred to a sterile 15 ml conical centrifuge tube, and spun for 5 min at 300×g, RT. The supernatant was discarded and the pellet was resuspended in 10 ml of pre-warmed growth media.
The total cell count was determined, and 20 μl of the desired cell number was added to each well of a 384 well plate using a Multidrop Combi. The plates were then incubated for 24 hours at 37° C., 95% rH, and 5% CO2.
Compound treatment: 24 hours after seeding, the cells were treated with compounds.
A 1:333 dilution of compounds, diluted in DMSO, was made to get a final concentration of 0.3% DMSO per well. To transfer the compounds to the assay plate, 120 nl was shot from Labcyte low dead volume plates to the cell plates containing 20 μl media/well with the ECHO 555 liquid handling system.
After treatment, the cells were fed with 20 μl fresh pre-warmed assay media using a Multidrop combi.
The assay plates were then incubated for 96 h at 37° C., 95% rH, and 5% CO2.
96h after treatment 30 μl of CyQuant® reagent was added to the assay plates using a Multidrop combi in the dark. The plates were then incubated for 1 hour at 37° C., 95% rH and 5% CO2. Thereafter, the assay plates were removed from the incubator and allowed to equilibrate to RT for 30 min in the dark without lid. Finally, they were measured using an EnVision microplate reader with a FITC bottom read program.
Experimental data in the Viability assay of the compounds shown in Table 1 are shown in Table 3 below and classified in the following groups: […]

YAP-TEAD interaction = experiment: SK-HEP-1 reporter assay (8x TEAD responsive elements driving NanoLuc luciferase); assay type: cell-based; details: Homo sapiens, SK-HEP1; SK-HEP-1 TEAD-NanoLuc reporter cells, 24 hour incubation, luciferase readout
Outline: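 SK-HEP-1 cells carrying stable 8× TEAD-element NanoLuc reporter, treated in duplicate with 10-point doses (top 30 μM final, 0.3% DMSO) for 24 h at 37 °C. Luciferase activity read by NanoGlo luminescence; IC50 values derived.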

NCI-H226 cells = experiment: Viability assay in NCI-H226 (Yap-dependent) cells, CyQUANT; assay type: cell-based; details: Homo sapiens, 96 hour incubation

melting point [°C] | IC50 (SW620 Yap KO cells) [µM] | IC50 (YAP-TEAD interaction) [nM] | IC50 (NCI-H226 cells) [µM] | Compound
134 to 136 | > 10 | 10 to 100 | 0.001 to 0.1 | CNC(=O)c1ccc2c(c1)c1nc(C)ccc1n2-c1ccc(C(F)(F)F)cc1 [Compound 22, N,2-dimethyl-5-[4-(trifluoromethyl)phenyl]-5H-pyrido[3,2-b]indole-8-carboxamide]
180 to 182 | > 10 | 10 to 100 | 0.001 to 0.1 | CNC(=O)c1ccc2c(c1)c1nc(OC)ccc1n2-c1ccc(C(F)(F)F)cc1 [Compound 27, 2-methoxy-N-methyl-5-[4-(trifluoromethyl)phenyl]-5H-pyrido[3,2-b]indole-8-carboxamide]
141 to 142 | 1 to 10 | 10 to 100 | 0.1 to 1 | CNC(=O)c1ccc2c(c1)c1cc(C(C)C)ccc1n2-c1ccc(C(F)(F)F)cc1 [Compound 28, N-methyl-6-(propan-2-yl)-9-[4-(trifluoromethyl)phenyl]-9H-carbazole-3-carboxamide]

Reference: patent US20230278958A1 (Merck Patent GmbH, priority 2020, published 2023)
